Laboratory results: article PMC6081452, “Downstream Products are Potent Inhibitors of the Heparan Sulfate 2-O-Sulfotransferase” (Scientific Reports, 2018)

Target: T1, glyc-HS2ST (glycosylated human HS2ST), WT (Homo sapiens, UniProt Q7LGA3)
T1 construct: the human HS2ST catalytic domain region comprising of 328 amino acid residues; His8 (N, cleaved yes); AviTag (N, cleaved yes); superfolder GFP (N, cleaved yes); made in house; host or cells: HEK293-F (transient transfection, secreted)
T1 sequence (Q7LGA3 29-356 limits assumed): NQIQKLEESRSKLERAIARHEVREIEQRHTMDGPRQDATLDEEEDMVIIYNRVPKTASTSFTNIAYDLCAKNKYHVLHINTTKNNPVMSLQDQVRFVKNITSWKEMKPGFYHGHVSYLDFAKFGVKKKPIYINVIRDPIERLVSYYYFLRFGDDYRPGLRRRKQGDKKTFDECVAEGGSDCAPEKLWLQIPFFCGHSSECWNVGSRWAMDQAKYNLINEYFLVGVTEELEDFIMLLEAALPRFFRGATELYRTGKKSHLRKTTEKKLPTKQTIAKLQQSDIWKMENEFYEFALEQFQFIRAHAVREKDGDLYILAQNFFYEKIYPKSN
Assay: BLI equilibrium binding, glyc-HS2ST WT
Conditions: BLI saturation binding curves, biotin-PEG4-linked hexasaccharide immobilised on sensor, n = 3, ± standard error of fit, 25 °C, PBS pH 7.8
Source text: HS-protein binding studies often utilize biologically-derived oligosaccharides of heterogeneous length and sulfation[34],[35]; however, the synthesis of oligosaccharides with defined length and specific sulfation patterns has recently become possible. We employed biolayer interferometry (BLI) to determine equilibrium surface binding constants (KD) for HS2ST with synthetic HS hexasaccharides (Fig. 1 and Supplementary Table 1). The HS compounds were attached to the BLI biosensor surface to conserve sample and to ensure a significant signal upon protein binding. The HS compounds contained a biotinylated PEG4 linker at the reducing terminus, enhancing the likelihood of a consistent presentation of the linear glycan on the sensor surface, in contrast to immobilizations via intra-chain modifications. […]
An expression construct was generated encoding the truncated catalytic domain of human HS2ST as an NH2-terminal fusion protein in the pGEn2 expression vector essentially as described in prior studies. […] The recombinant human HS2ST was expressed as a soluble secreted protein by transient transfection of suspension culture HEK293-F cells (FreeStyle^TM 293-Fcells, Thermo Fisher Scientific, Waltham MA) maintained at 0.5–3.0 × 10^6 cells/ml in a humidified CO2 platform shaker incubator at 37 °C with 55% humidity. […]

Kd: 138 ± 19 nM
Substance: GlcNS-GlcA-GlcNS-IdoA2S-GlcNS-GlcA~ [Compound 2]
